Our source for the AC50 values is ChEMBL document CHEMBL5291721, “A preclinical secondary pharmacology resource illuminates target-adverse drug reaction associations of marketed drugs” (Nat Commun, 2023).

Assay [1] has as its target T1, Peroxisome proliferator-activated receptor alpha (Homo sapiens, UniProt Q07869).
T1 sequence (Q07869 whole entry): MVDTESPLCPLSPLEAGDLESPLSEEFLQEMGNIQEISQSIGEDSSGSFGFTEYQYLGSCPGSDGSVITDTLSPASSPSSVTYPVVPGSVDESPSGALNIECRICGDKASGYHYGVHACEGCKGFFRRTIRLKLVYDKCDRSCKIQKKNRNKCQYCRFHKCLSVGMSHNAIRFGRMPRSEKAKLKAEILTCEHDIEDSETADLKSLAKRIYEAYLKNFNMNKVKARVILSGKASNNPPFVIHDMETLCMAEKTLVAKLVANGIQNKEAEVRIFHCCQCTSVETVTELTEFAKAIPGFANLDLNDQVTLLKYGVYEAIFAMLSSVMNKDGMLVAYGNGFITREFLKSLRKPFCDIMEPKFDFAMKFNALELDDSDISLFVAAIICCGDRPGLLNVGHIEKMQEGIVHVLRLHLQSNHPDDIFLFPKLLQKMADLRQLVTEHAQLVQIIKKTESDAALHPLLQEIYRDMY
The class given is functional.

The target of a further assay is T2, Thromboxane A2 receptor (Homo sapiens, UniProt P21731).
T2 sequence (P21731 whole entry): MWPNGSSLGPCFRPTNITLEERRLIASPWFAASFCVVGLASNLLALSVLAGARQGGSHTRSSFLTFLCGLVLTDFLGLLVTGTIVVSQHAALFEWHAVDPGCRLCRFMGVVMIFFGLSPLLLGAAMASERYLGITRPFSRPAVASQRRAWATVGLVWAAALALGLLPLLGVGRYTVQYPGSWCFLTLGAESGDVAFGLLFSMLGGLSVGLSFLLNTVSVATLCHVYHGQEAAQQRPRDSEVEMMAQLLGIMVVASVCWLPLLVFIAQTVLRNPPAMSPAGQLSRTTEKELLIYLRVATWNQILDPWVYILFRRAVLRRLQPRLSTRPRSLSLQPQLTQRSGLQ
Format: functional, cell-based.

Assay [2] addresses T3, Alpha-2A adrenergic receptor (Homo sapiens, UniProt P08913).
T3 sequence (P08913 whole entry): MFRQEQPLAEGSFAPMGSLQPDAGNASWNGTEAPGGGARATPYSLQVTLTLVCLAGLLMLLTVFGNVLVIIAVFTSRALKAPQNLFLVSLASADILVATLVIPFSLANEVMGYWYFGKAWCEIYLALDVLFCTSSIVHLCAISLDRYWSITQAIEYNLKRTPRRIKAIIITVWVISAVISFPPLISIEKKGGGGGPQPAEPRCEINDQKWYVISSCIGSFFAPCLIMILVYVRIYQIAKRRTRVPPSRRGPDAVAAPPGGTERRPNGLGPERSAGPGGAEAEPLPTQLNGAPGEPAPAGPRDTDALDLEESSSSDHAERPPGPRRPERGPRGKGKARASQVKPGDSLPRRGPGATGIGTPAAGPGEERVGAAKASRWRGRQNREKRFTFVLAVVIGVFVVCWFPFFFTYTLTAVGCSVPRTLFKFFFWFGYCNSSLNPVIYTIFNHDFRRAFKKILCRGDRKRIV

In assay [3] the target is T4, Retinoic acid receptor beta (Homo sapiens, UniProt P10826).
T4 sequence (P10826 whole entry): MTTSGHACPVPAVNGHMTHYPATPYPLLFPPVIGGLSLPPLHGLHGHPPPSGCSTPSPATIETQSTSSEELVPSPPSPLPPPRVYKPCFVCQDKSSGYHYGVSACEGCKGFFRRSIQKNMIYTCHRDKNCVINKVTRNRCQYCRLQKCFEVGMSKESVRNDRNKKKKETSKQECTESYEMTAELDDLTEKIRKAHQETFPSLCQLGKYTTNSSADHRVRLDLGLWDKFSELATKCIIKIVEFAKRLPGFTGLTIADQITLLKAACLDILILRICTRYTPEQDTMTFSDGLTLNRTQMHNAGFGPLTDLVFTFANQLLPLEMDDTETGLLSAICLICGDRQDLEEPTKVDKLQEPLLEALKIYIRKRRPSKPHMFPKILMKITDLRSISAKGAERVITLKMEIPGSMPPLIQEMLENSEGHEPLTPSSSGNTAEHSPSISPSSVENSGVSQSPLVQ
Format: functional, cell-based.

Assay [4] has as its target T5, Retinoic acid receptor gamma (Homo sapiens, UniProt P13631).
T5 sequence (P13631 whole entry): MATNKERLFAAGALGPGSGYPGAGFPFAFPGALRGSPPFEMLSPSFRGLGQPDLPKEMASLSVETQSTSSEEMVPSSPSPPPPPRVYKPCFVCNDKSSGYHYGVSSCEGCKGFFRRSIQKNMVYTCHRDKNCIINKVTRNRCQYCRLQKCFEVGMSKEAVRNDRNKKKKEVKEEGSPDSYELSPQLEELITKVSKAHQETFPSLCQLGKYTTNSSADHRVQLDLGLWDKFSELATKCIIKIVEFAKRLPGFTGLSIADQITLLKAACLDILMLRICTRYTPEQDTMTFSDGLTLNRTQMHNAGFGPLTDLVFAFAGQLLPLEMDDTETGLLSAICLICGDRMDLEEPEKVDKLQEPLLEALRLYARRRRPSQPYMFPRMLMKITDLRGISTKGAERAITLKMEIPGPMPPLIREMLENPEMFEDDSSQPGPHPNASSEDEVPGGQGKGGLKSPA
Format: functional, cell-based.

Assay [5] deals with T6, Oxysterols receptor LXR-alpha (Homo sapiens, UniProt Q13133).
T6 sequence (Q13133 whole entry): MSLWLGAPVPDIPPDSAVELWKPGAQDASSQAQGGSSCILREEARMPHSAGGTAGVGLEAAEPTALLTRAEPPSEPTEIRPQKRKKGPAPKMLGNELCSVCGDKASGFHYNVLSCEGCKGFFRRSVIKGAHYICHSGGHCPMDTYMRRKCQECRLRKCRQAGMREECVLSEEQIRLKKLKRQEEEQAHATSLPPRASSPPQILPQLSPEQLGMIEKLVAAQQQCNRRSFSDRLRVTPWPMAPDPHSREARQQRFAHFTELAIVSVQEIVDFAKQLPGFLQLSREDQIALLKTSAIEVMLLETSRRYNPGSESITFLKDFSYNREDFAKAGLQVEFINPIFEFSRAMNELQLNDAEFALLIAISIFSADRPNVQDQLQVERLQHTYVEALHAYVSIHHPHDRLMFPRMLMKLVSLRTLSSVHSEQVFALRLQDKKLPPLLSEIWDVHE
Format: functional.
Note: assay procedure not described here.

By AC50 is commonly meant the concentration at which the activity in the assay is half-maximal. Low readings indicate greater potency, high ones weaker potency. In assay [1], `COc1ccccc1Oc1c(NS(=O)(=O)c2ccc(C(C)(C)C)cc2)nc(-c2ncccn2)nc1OCCO` [BOSENTAN] showed an AC50 of over 30 µM. Take `COc1cc2nccc(Oc3ccc(NC(=O)C4(C(=O)Nc5ccc(F)cc5)CC4)cc3)c2cc1OC` [CABOZANTINIB]: the AC50 was 5.52 µM on Thromboxane A2 receptor and over 30 µM in assay [2].

On to `CC(C(=O)O)c1ccc2c(c1)[nH]c1ccc(Cl)cc12` (configuration not stated) [CARPROFEN], for which the AC50 in assay [3], in assay [4] and in assay [5] was over 30 µM throughout.

In assay [1], `CC(C)Cc1ccc(C(C)C(=O)O)cc1` (configuration not stated) [IBUPROFEN] registered a concentration at half-maximal activity (AC50) of over 30 µM. As to `CCN(CC)CCNC(=O)c1c(C)[nH]c(/C=C2\C(=O)Nc3ccc(F)cc32)c1C` [SUNITINIB], the AC50 in assay [3], in assay [4] and in assay [5] was over 30 µM each time. Turning to `C=CC[C@@H]1/C=C(\C)C[C@H](C)C[C@H](OC)[C@H]2O[C@@](O)(C(=O)C(=O)N3CCCC[C@H]3C(=O)O[C@H](/C(C)=C/[C@@H]3CC[C@@H](O)[C@H](OC)C3)[C@H](C)[C@@H](O)CC1=O)[C@H](C)C[C@@H]2OC` [TACROLIMUS ANHYDROUS], the concentration at half-maximal activity (AC50) on Thromboxane A2 receptor is 10 µM. Consider `COc1cc2nc(N3CCN(C(=O)C4CCCO4)CC3)nc(N)c2cc1OC` (configuration not stated) [TERAZOSIN], for which the AC50 in assay [2] was 29 µM.
